Measurements: patent publication US20240108623A1, “METHODS OF TREATING CANCER WITH POZIOTINIB” (BOARD OF REGENTS, THE UNIVERSITY OF TEXAS SYSTEM, priority 2021, published 2024)

Legend:
Assay in all cases: Ba/F3 cell drug screening, Cell Titer Glo
Format in all cases: cell-based
EGFR Ex19del/C797S = biological target: T1, EGFR Ex19del/C797S (Homo sapiens, UniProt P00533, C797S/DEL746-750); conditions: Ba/F3 cells expressing EGFR Ex19del/C797S; 72 hours
T1 construct: expressed in transfected cells; host or cells: Ba/F3 (murine pro-B cells), retroviral transduction with pBabe-Puro based vectors
Procedure: (§1) Ba/F3 cell generation, drug screening, and IC50 approximations. Ba/F3 cells were obtained as a gift from Dr. Gordon Mills (MD Anderson Cancer Center), and maintained in RPMI (Sigma) containing 10% FBS, 1% penicillin/streptomycin, and 10 ng/ml recombinant mIL-3 (R&D Biosystems). To establish stable Ba/F3 cell lines, Ba/F3 cells were transduced with retroviruses containing mutant EGFR plasmids for 12-24 hours. Retroviruses were generated using Lipofectamine 2000 (Invitrogen) transfections of Phoenix 293T-ampho cells (Orbigen) with pBabe-Puro based vectors listed below in Table 6. Vectors were generated by GeneScript or Bioinnovatise using parental vectors from Addgene listed below in Table 6.
(§2) After 48-72 hours of transduction, 2 μg/ml puromycin (Invitrogen) was added to Ba/F3 cell lines in complete RPMI. To select for EGFR positive cell lines, cells were stained with PE-EGFR (Biolegend) and sorted by FACS. After sorting, EGFR positive cells were maintained in RPMI containing 10% FBS, 1% penicillin/streptomycin, and 1 ng/ml EGF to support cell viability. Drug screening was performed as previously described^41,42. Shortly, cells were plated in 384-well plates (Greiner Bio-One) at 2000-3000 cells per well in technical triplicate. Seven different concentrations of TKIs or DMSO vehicle were added to reach a final volume of 40 μL per well. After 72 hours, 11p L of Cell Titer Glo (Promega) was added to each well. Plates were incubated for a minimum of 10 minutes, and bioluminescence was determined using a FLUOstar OPTIMA plate reader (BMG LABTECH). Raw bioluminescence values were normalized to DMSO control treated cells, and values were plotted in GraphPad Prism. Non-linear regressions were used to fit the normalized data with a variable slope, and IC50 values were determined by GraphPad prism by interpolation of concentrations at 50% inhibition. Drug screens were performed in technical triplicate on each plate and either duplicate or triplicate biological replicates. Mutant to WT ratios (Mut/WT) for each drug were calculated by dividing the IC50 values of mutant cell lines by the average IC50 value of Ba/F3 cells expressing WT EGFR supplemented with 10 ng/ml EGF for each drug. Statistical differences between groups were determined by ANOVA as described in the figure legends.

EGFR G719A T790M = biological target: T2, EGFR G719A T790M (Homo sapiens, UniProt P00533, G719A/T790M); conditions: Ba/F3 cells expressing EGFR G719A T790M; 72 hours
T2 construct: expressed in transfected cells; host or cells: Ba/F3 (retroviral transduction, pBabe-Puro based vectors)
Procedure: as §1, §2

EGFR L858R L718Q = biological target: T3, EGFR L858R L718Q (Homo sapiens, UniProt P00533, L718Q/L858R); conditions: Ba/F3 cells expressing EGFR L858R L718Q; 72 hours
T3 construct: host or cells: Ba/F3 (retroviral transduction, pBabe-Puro based vectors)
Procedure: as §1, §2

EGFR Ex19del T790M L718V = biological target: T4, EGFR Ex19del T790M L718V (Homo sapiens, UniProt P00533, DEL746-750/L718V/T790M); conditions: Ba/F3 cells expressing EGFR Ex19del T790M L718V; 72 hours
T4 construct: expressed in transfected cells; host or cells: Ba/F3 (retroviral transduction, pBabe-Puro based vectors)
Procedure: as §1, §2

EGFR S720P = biological target: T5, EGFR S720P (Homo sapiens, UniProt P00533, S720P); conditions: Ba/F3 cells expressing EGFR S720P; 72 hours
T5 construct: expressed in transfected cells; host or cells: Ba/F3 (retroviral, pBabe-Puro based vector; created by GeneScript from EGFR WT)
Procedure: as §1, §2

EGFR L858R G724S = biological target: T6, EGFR L858R G724S (Homo sapiens, UniProt P00533, G724S/L858R); conditions: Ba/F3 cells expressing EGFR L858R G724S; 72 hours
T6 construct: expressed in transfected cells; host or cells: Ba/F3 (murine pro-B cells), retroviral transduction with pBabe-Puro based vectors
Procedure: as §1, §2

EGFR L833V = biological target: T7, EGFR L833V (Homo sapiens, UniProt P00533, L833V); conditions: Ba/F3 cells expressing EGFR L833V; 72 hours
T7 construct: expressed in transfected cells; host or cells: Ba/F3 (retroviral, pBabe-Puro based vector)
Procedure: as §1, §2

EGFR T790M = biological target: T8, EGFR T790M (Homo sapiens, UniProt P00533, T790M); conditions: Ba/F3 cells expressing EGFR T790M; 72 hours
T8 construct: expressed in transfected cells; host or cells: Ba/F3 (retroviral transduction, pBabe-Puro based vectors)
Procedure: as §1, §2

EGFR Ex19del G796S = biological target: T9, EGFR Ex19del G796S (Homo sapiens, UniProt P00533, DEL746-750/G796S); conditions: Ba/F3 cells expressing EGFR Ex19del G796S; 72 hours
T9 construct: expressed in transfected cells; host or cells: Ba/F3 (retroviral transduction, pBabe-Puro based vectors)
Procedure: as §1, §2

EGFR D770insNPG = biological target: T10, EGFR D770insNPG (Homo sapiens, UniProt P00533, INS770NPG); conditions: Ba/F3 cells expressing EGFR D770insNPG; 72 hours
T10 construct: expressed in transfected cells; host or cells: Ba/F3 (retroviral, pBabe-Puro based vector)
Procedure: as §1, §2

EGFR Ex19del L718V = biological target: T11, EGFR Ex19del L718V (Homo sapiens, UniProt P00533, DEL746-750/L718V); conditions: Ba/F3 cells expressing EGFR Ex19del L718V; 72 hours
T11 construct: expressed in transfected cells; host or cells: Ba/F3 (murine pro-B cells), retroviral transduction with pBabe-Puro based vectors
Procedure: as §1, §2

EGFR L858R/C797S = biological target: T12, EGFR L858R/C797S (Homo sapiens, UniProt P00533, C797S/L858R); conditions: Ba/F3 cells expressing EGFR L858R/C797S; 72 hours
T12 construct: expressed in transfected cells; host or cells: Ba/F3 (retroviral transduction, pBabe-Puro based vectors)
Procedure: as §1, §2

EGFR L858R S784F = biological target: T13, EGFR L858R S784F (Homo sapiens, UniProt P00533, L858R/S784F); conditions: Ba/F3 cells expressing EGFR L858R S784F; 72 hours
T13 construct: expressed in transfected cells; host or cells: Ba/F3 (retroviral, pBabe-Puro based vector; created by GeneScript from EGFR L858R)
Procedure: as §1, §2

EGFR S768I/V769L = biological target: T14, EGFR S768I/V769L (Homo sapiens, UniProt P00533, S768I/V769L); conditions: Ba/F3 cells expressing EGFR S768I/V769L; 72 hours
T14 construct: host or cells: Ba/F3 (retroviral transduction, pBabe-Puro based vectors)
Procedure: as §1, §2

C=CC(=O)N1CCC(Oc2cc3c(Nc4ccc(Cl)c(Cl)c4F)ncnc3cc2OC)CC1 [Poziotinib]
Response of Cells Comprising PACC EGFR Mutations to Second-Generation TKIs (EGFR Ex19del/C797S): 0.458 | Response of Cells Comprising T790M-like-S EGFR Mutations to Second-Generation TKIs (EGFR G719A T790M): 0.4851 | Response of Cells Comprising PACC EGFR Mutations to Second-Generation TKIs (EGFR L858R L718Q): 0.01623 | Response of Cells Comprising T790M-like-S EGFR Mutations to Second-Generation TKIs (EGFR Ex19del T790M L718V): 15.89 | Response of Cells Comprising Classical-Like EGFR Mutations to Second-Generation TKIs (EGFR S720P): 0.1814 | Response of Cells Comprising PACC EGFR Mutations to Second-Generation TKIs (EGFR L858R G724S): 0.0068 | Response of Cells Comprising Classical-Like EGFR Mutations to Second-Generation TKIs (EGFR L833V): 0.004716 | Response of Cells Comprising T790M-like-S EGFR Mutations to Second-Generation TKIs (EGFR T790M): 4.671 | Response of Cells Comprising PACC EGFR Mutations to Second-Generation TKIs (EGFR Ex19del G796S): 0.2054 | Response of Cells Comprising Ex20ins EGFR Mutations to Poziotinib (EGFR D770insNPG): 0.2889 | Response of Cells Comprising PACC EGFR Mutations to Second-Generation TKIs (EGFR Ex19del L718V): 0.003363 | Response of Cells Comprising PACC EGFR Mutations to Second-Generation TKIs (EGFR L858R/C797S): 0.2299 | Response of Cells Comprising Classical-Like EGFR Mutations to Second-Generation TKIs (EGFR L858R S784F): 0.1185 | Response of Cells Comprising PACC EGFR Mutations to Second-Generation TKIs (EGFR S768I/V769L): 0.04206
